In US9688691B2, “Macrocyclic quinazole derivatives and their use as MTKI” (Janssen Pharmaceutica NV, priority 2004, dated 2017):

How the values were obtained:
Format in all cases: biochemical
[1] = target: cSRC (h) (Homo sapiens, UniProt P12931); test: Kinase profiling, glass-fiber filter technology: cSRC; conditions: test concentration of 10^−6 M; read-out: cSRC inhibition score
Procedure: (§1) The in vitro inhibition of a panel of kinases was assessed using the glass-fiber filter technology as described by Davies, S. P. et al., Biochem J. (2000), 351; p. 95-105.
(§2) In the glass-fiber filter technology the activity of the kinase of interest is measured using an appropriate substrate that is incubated with the aforementioned kinase protein in the presence of (^33P) radiolabeled ATP. (^33P) Phosporylation of the substrate is subsequently measured as radioactivity bound on a glassfiber-filter.
(§3) All kinases are pre-diluted to a 10× working concentration prior to addition into the assay. The composition of the dilution buffer for each kinase is detailed below.
(§4) All substrates are dissolved and diluted to working stocks in de-ionised water.
(§5) In a final reaction volume of 25 μl, cSRC (h) (5-10 mU) is incubated with 8 mM MOPS pH 7.0, 0.2 mM EDTA, 250 μM KVEKIGEGTYGVVYK (Cdc2 peptide), 10 mM MgAcetate and [γ-^33P-ATP] (specific activity approx. 500 cpm/pmol, concentration as required). The reaction is initiated by the addition of the MgATP mix. After incubation for 40 minutes at room temperature, the reaction is stopped by the addition of 5 μl of a 3% phosphoric acid solution.
(§6) 10 μl of the reaction is then spotted onto a P30 filtermat and washed three times for 5 minutes in 75 mM phosphoric acid and once in methanol prior to drying and scintillation counting.

[2] = target: EGFR (h) (Homo sapiens, UniProt P00533); test: Kinase profiling, glass-fiber filter technology: EGFR; conditions: test concentration of 10^−6 M; read-out: EGFR inhibition score
Sequence of EGFR (h) (P00533 25-1210): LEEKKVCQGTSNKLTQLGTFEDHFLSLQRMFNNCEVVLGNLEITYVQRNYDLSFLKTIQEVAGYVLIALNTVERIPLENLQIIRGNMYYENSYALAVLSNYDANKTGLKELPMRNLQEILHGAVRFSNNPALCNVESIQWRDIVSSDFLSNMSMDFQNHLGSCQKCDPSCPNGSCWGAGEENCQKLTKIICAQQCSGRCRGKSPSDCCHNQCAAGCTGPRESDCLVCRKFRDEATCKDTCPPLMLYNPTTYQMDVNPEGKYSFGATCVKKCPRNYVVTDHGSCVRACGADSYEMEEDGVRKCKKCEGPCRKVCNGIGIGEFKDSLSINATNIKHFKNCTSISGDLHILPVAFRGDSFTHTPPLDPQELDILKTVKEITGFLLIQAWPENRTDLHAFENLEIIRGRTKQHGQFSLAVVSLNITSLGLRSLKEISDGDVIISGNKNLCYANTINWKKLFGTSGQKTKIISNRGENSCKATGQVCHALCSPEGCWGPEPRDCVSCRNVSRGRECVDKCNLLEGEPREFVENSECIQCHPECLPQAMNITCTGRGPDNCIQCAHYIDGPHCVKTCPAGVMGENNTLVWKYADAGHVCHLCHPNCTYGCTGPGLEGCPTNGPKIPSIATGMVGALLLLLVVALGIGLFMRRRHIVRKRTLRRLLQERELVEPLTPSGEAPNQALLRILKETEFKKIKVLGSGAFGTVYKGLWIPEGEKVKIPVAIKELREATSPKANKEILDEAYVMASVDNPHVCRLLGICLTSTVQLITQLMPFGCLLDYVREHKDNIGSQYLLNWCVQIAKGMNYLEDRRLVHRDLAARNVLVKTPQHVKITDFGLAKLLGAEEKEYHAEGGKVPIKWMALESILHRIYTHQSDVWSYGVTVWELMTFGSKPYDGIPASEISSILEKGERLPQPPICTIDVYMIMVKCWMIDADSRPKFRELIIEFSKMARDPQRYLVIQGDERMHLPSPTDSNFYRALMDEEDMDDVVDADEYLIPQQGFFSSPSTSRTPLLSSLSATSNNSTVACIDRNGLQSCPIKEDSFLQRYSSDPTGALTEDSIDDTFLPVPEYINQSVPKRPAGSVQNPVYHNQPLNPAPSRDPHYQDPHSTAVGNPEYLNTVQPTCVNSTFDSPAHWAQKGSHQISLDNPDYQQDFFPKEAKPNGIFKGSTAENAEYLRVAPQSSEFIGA
Procedure: as §1, §2, §3, §4
as §5, with “EGFR” for “cSRC”, “10 mM MnCl2, 0.1 mg/ml poly(Glu, Tyr) 4:1,” for “250 μM KVEKIGEGTYGVVYK (Cdc2 peptide),”, “solution. 10 μl of the reaction is then spotted onto a Filtermat A and washed three times for 5 minutes in 75 mM phosphoric acid and once in methanol prior to drying and scintillation counting.” for “solution.”

[3] = target: Lck (h) (Homo sapiens, UniProt P06239); test: Kinase profiling, glass-fiber filter technology: Lck; conditions: test concentration of 10^−6 M; read-out: Lck inhibition score
Sequence of Lck (h) (P06239 whole entry): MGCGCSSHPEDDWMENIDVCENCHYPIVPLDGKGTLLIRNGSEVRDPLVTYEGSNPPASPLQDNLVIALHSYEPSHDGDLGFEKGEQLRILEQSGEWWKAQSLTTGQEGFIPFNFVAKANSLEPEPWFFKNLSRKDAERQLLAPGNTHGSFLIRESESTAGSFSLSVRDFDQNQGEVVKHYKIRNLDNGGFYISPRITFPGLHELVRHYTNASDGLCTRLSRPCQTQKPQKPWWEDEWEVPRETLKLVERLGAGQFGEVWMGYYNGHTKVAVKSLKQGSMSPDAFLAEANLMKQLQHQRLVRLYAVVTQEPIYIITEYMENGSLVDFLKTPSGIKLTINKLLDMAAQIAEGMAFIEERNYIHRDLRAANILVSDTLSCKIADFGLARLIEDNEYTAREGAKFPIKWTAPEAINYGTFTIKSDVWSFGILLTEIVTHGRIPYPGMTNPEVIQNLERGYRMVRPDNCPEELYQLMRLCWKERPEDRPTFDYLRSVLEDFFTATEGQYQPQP
Procedure: as §1, §2, §3, §4
as §5, with “Lck” for “cSRC”, “50” for “8”, “Tris” for “MOPS”, “7.5, 0.1” for “7.0, 0.2”, “EGTA, 0.1 mM Na3VO4,” for “EDTA,”
as §6

[4] = target: Lyn (h) (Homo sapiens, UniProt P07948); test: Kinase profiling, glass-fiber filter technology: Lyn; conditions: test concentration of 10^−6 M; read-out: Lyn inhibition score
Sequence of Lyn (h) (P07948 whole entry): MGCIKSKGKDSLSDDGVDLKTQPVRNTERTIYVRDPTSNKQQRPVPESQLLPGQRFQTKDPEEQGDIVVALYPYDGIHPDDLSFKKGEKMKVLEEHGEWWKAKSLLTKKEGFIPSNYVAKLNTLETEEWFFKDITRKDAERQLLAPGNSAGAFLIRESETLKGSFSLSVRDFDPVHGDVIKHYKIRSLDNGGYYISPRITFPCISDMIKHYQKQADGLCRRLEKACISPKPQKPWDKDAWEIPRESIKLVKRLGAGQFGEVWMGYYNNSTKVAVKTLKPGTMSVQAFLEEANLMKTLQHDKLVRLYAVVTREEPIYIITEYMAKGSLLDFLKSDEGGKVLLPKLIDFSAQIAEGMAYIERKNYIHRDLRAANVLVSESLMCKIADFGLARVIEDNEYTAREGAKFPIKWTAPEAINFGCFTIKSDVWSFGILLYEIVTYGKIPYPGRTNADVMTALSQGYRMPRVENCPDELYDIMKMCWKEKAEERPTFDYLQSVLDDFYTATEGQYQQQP
Procedure: as §1, §2, §3, §4
(§7) In a final reaction volume of 25 μl, Lyn (h) (5-10 mU) is incubated with 50 mM Tris pH 7.5, 0.1 mM EGTA, 0.1 mM Na3VO4, 0.1% β-mercaptoethanol, 0.1 mg/ml poly(Glu, Tyr) 4:1, 10 mM MgAcetate and [γ-^33P-ATP] (specific activity approx. 500 cpm/pmol, concentration as required). The reaction is initiated by the addition of the MgATP mix. After incubation for 40 minutes at room temperature, the reaction is stopped by the addition of 5 μl of a 3% phosphoric acid solution. 10 μl of the reaction is then spotted onto a Filtermat A and washed three times for 5 minutes in 75 mM phosphoric acid and once in methanol prior to drying and scintillation counting.

[5] = target: Yes (h) (Homo sapiens, UniProt P07947); test: Kinase profiling, glass-fiber filter technology: Yes; conditions: test concentration of 10^−6 M; read-out: Yes inhibition score
Sequence of Yes (h) (P07947 whole entry): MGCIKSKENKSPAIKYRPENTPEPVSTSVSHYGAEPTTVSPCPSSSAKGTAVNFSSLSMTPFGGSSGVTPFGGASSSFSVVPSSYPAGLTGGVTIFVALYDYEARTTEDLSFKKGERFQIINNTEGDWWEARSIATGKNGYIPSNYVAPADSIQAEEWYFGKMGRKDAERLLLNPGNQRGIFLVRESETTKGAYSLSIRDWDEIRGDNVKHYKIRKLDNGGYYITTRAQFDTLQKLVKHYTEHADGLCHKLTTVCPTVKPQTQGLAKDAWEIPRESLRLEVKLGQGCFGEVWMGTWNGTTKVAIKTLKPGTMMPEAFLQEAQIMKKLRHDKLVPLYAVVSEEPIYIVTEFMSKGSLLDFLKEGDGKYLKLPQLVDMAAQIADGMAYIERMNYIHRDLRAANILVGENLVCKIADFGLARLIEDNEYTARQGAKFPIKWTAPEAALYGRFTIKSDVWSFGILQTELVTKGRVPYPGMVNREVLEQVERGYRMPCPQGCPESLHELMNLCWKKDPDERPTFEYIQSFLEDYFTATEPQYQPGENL
Procedure: as §1, §2, §3, §4
as §7, with “μl, Yes” for “μl, Lyn”, “with 8” for “with 50”, “mM MOPS” for “mM Tris”, “pH 7.0, 0.2” for “pH 7.5, 0.1”, “mM EDTA,” for “mM EGTA, 0.1 mM Na3VO4, 0.1% β-mercaptoethanol,”

[6] = target: Blk (m) (Mus musculus, UniProt P16277); test: Kinase profiling, glass-fiber filter technology: Blk; conditions: test concentration of 10^−6 M; read-out: Blkl inhibition score
Procedure: as §1, §2, §3, §4
as §7, with “Blk (m)” for “Lyn (h)”, “[γ-33P-ATP]” for “[γ-^33P-ATP]”

[7] = target: Abl (h) (Homo sapiens, UniProt P00519); test: Kinase profiling, glass-fiber filter technology: Abl; conditions: test concentration of 10^−6 M; read-out: Abl inhibition score
Procedure: as §1, §2, §3, §4
as §7, with “Abl” for “Lyn”, “with 8 mM MOPS pH 7.0, 0.2 mM EDTA,” for “with”, “μM EAIYAAPFAKKK,” for “mM Tris pH 7.5, 0.1 mM EGTA, 0.1 mM Na3VO4, 0.1% β-mercaptoethanol, 0.1 mg/ml poly(Glu, Tyr) 4:1,”, “P30 filtermat” for “Filtermat A”

[8] = target: Fyn human (Homo sapiens, UniProt P06241); test: Kinase profiling, glass-fiber filter technology: Fyn; conditions: test concentration of 10^−6 M; read-out: Fyn inhibition score
Sequence of Fyn human (P06241 whole entry): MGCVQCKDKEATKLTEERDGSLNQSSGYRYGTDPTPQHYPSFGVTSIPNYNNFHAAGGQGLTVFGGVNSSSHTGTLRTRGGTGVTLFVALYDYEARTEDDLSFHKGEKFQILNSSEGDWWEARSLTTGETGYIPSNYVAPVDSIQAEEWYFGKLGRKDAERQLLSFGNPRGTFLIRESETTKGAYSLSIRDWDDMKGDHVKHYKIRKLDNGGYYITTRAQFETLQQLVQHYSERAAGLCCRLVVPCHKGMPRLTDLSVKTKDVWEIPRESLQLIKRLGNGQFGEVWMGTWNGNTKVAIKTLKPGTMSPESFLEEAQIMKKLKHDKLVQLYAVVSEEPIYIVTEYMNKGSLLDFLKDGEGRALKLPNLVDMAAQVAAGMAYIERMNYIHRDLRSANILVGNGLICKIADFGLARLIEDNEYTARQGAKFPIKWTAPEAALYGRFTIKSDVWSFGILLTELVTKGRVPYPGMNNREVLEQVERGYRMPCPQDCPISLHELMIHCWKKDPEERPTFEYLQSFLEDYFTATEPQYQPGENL
Procedure: as §1, §2, §3, §4
as §7, with “Fyn human” for “Lyn (h)”, “250 μM KVEKIGEGTYGVVYK (Cdc2 peptide),” for “0.1% β-mercaptoethanol, 0.1 mg/ml poly(Glu, Tyr) 4:1,”, “P30 filtermat” for “Filtermat A”

[9] = target: Ret human (Homo sapiens, UniProt P07949); test: Kinase profiling, glass-fiber filter technology: Ret; conditions: test concentration of 10^−6 M; read-out: Ret inhibition score
Sequence of Ret human (P07949 29-1114): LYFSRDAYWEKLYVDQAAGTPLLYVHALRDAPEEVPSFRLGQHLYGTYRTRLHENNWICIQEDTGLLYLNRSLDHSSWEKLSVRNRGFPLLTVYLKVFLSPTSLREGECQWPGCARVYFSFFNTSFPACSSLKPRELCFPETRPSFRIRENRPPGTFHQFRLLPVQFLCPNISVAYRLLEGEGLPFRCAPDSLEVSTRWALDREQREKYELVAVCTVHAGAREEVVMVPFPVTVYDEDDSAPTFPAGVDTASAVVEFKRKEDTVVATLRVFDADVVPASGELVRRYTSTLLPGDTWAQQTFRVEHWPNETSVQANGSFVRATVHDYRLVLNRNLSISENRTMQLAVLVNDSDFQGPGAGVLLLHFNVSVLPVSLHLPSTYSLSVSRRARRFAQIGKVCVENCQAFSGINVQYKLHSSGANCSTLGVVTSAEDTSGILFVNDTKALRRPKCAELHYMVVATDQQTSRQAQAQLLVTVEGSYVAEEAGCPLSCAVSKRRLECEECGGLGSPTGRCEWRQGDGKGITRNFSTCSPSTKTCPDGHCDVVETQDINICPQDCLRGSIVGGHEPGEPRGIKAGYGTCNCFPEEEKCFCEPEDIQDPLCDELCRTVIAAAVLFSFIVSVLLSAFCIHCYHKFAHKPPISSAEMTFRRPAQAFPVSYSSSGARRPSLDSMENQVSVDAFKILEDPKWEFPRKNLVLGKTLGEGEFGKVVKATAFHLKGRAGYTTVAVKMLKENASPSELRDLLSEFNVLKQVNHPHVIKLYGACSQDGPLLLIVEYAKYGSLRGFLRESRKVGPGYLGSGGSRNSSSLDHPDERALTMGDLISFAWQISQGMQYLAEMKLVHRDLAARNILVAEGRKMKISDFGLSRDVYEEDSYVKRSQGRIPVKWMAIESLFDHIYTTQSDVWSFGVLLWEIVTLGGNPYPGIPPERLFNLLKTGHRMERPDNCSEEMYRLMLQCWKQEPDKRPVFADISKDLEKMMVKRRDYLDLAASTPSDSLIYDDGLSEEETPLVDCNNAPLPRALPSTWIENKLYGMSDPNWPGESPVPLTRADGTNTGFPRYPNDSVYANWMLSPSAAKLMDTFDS
Procedure: as §1, §2, §3, §4
as §7, with “μl, Ret human” for “μl, Lyn (h)”, “with 8” for “with 50”, “mM MOPS” for “mM Tris”, “pH 7.0, 0.2” for “pH 7.5, 0.1”, “mM EDTA, 250 μM KKKSPGEYVNIEFG,” for “mM EGTA, 0.1 mM Na3VO4, 0.1% β-mercaptoethanol, 0.1 mg/ml poly(Glu, Tyr) 4:1,”, “a P30 filtermat” for “a Filtermat A”

[10] = target: ErbB4 (h) (Homo sapiens, UniProt Q15303); test: Kinase profiling, glass-fiber filter technology: ErbB4; conditions: test concentration of 10^−6 M; read-out: ErbB4 inhibition score
Procedure: as §1, §2, §3, §4
In a final reaction volume of 25 μl, ErbB4 (h) (5-10 mU) is incubated with 8 mM MOPS pH 7.0, 0.2 mM EDTA, 10 mM MnCl2, 0.1 mg/ml poly(Glu, Tyr) 4:1, 10 mM MgAcetate and [γ-33P-ATP] (specific activity approx. 500 cpm/pmol, concentration as required). The reaction is initiated by the addition of the MgATP mix. After incubation for 40 minutes at room temperature, the reaction is stopped by the addition of 5 μl of a 3% phosphoric acid solution. 10 μl of the reaction is then spotted onto a Filtermat A and washed three times for 5 minutes in 75 mM phosphoric acid and once in methanol prior to drying and scintillation counting.

Sequence of cSRC (h) (P12931 whole entry): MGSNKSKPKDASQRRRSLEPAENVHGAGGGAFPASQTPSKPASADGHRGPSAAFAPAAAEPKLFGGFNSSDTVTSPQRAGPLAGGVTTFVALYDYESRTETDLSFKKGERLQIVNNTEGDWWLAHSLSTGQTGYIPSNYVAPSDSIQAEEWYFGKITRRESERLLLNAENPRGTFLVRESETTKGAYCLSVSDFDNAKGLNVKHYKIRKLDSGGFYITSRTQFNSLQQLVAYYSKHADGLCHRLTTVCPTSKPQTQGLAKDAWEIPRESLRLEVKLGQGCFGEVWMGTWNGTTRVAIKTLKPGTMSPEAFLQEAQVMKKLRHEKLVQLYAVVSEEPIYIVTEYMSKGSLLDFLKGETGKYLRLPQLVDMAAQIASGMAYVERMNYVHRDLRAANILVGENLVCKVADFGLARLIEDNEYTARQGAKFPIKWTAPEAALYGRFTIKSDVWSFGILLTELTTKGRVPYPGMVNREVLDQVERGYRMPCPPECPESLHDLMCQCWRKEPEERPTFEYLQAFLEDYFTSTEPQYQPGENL

Row | inhibition at 1 µM [1] | inhibition at 1 µM [2] | inhibition at 1 µM [3] | inhibition at 1 µM [4] | inhibition at 1 µM [5] | inhibition at 1 µM [6] | inhibition at 1 µM [7] | inhibition at 1 µM [8] | inhibition at 1 µM [9] | inhibition at 1 µM [10] | Compound
1 | 60 to 80% | > 80% | 10 to 30% | 30 to 60% | 30 to 60% | 30 to 60% | – | – | – | – | COc1cc2ncnc3c2cc1OCCN(CCN1CCOCC1)C(=O)CNC(=O)Cc1ccc(Cl)cc1N3 [Compound 1]
2 | > 80% | > 80% | > 80% | – | > 80% | – | 10 to 30% | 60 to 80% | > 80% | 60 to 80% | COc1cc2ncnc3c2cc1OCCCNC(=O)[C@H](CC1CCCCC1)NC(=O)CCc1ccc(Cl)cc1N3 [Compound 8]
